Legend:
[1] = test system: Kv1.2–FMRP interaction, cerebellar homogenates; experiment: Co-IP of Kv1.2 with FMRP (anti-FMRP antibody), peptide blocking; format: binding; details: WT mouse cerebellar homogenates; 250 μM peptide added prior to anti-FMRP antibody; immunoblot; at least in triplicate
Experimental: Whole cerebellums from WT and Fmr1 KO mice were homogenized in ice-cold Pull-Down buffer (1% Lubrol, 50 mM Tris–HCl, pH 7.4, 10 nM Na-orthovanadate, 30 mM Na-pyrophosphate, 50 mM NaF, 20 μm ZnCl2, and 0.25 mM PMSF, with the addition of protease inhibitor cocktail) using a Potter-Elvehjem grinding chamber (VWR). Samples were then centrifuged at 5000g for 20 min and 500 μL of supernatants were transferred into 1.5 ml Eppendorf tubes. 1:100 dilutions of anti-FMRP (Abcam 17722), anti-Kv1.2 (K14/16; Neuromab), anti-Kv1.2 ext-c (extracellular; Alomone labs), anti-Kv1.2 N-term (NBP1-42802; Novus), or anti-GAPDH (GAPDH-71.1; 1:80,000; Sigma-Aldrich) antibodies were added to the homogenate and incubated at 4 °C under continuous agitation for 2 h. A total 30 μL of a 1:1 mixture of pre-washed protein A and protein G magnabeads (Genscript) was then added and the samples were incubated under the same conditions for another 2 h. Beads were washed 4 times with PBS-Tween (0.2% Tween w/v) and then centrifuged at 3000g for 1 min. A sample was kept to verify total protein input. Protein was disassociated from the beads with the addition of 30 μL of 2× loading buffer (4% SDS, 20% glycerol w/v, 0.1 M dithiothreitol, 100 mM Tris–HCl, pH 6.8) then submitting the samples to 3 min at 95 °C. […] Bands were quantified as previously described using the AlphaEase SA software. […]

BC–PN synapse, WT = experiment: sIPSCs from PNs, paired BC–PN recording, WT synapses; format: cell-based, mouse; details: peptide 2.5 mM infused into WT BCs, before and 20 min after; n = 5-6
[2] = biological target: T1, recombinant full-length FMRP (isoform 1) (Homo sapiens, UniProt Q06787); experiment: In vitro intrinsic protein fluorescence binding assay; details: 500–1000 μM peptide and 1 μM FMRP, 100 mM NaCl, 50 mM Na2PO4 pH 7.4, 2 mM DTT, 20 °C, excitation 287 nm
T1 construct: containing cDNA for full-length human FMRP; His-SUMO (N, cleaved yes); made in house; host or cells: Escherichia coli BL21 (DE3) Codon Plus
Experimental: Small Ubiquitin-like Modifier (SUMO) fusion construct containing cDNA for full-length human FMRP was generated by gene synthesis (GenScript USA Inc.) and subcloned into a pET SUMO vector (Invitrogen). […] The pET SUMO–FMRP construct was transformed into Escherichia coli BL21 (DE3) Codon Plus cells and grown at 37 °C in Lennox broth medium. Protein expression was induced with 0.5 mM isopropyl-β-D-thiogalactopyranoside when optical density reached ~0.6, followed by 18 h of additional growth at 16 °C. Cells were harvested by centrifugation and pellets stored at −20 °C. In order to purify SUMO–FMRP, thawed pellets were resuspended in lysis buffer [50 mM Tris, pH 8.0, 500 mM NaCl, 20 mM imidazole, 10% glycerol, 250 mM arginine, 5 mM benzamidine, and 2 mM dithiothreitol (DTT)], supplemented with DNAse 1 and cOmplete™ Protease Inhibitor Cocktail (Sigma-Aldrich). After cell lysis and centrifugation, the filtered supernatant was loaded onto a 20 ml NiNTA column equilibrated in the same lysis buffer. The column was extensively washed with 20 column volumes (CV) of the same buffer supplemented with 100 mM imidazole. Elution of SUMO-fusion FMRP was performed using 100–500 mM imidazole gradient, and protein-containing fractions were combined and a 6× His tagged Ulp protease was added. Cleavage of the His-SUMO tag was performed overnight in a cold room (7 °C) while dialyzing in 4 L of 50 mM Tris, pH 8.0, 500 mM NaCl, 50 mM imidazole, 10% glycerol, 250 mM arginine, 5 mM benzamidine, and 2 mM DTT. Complete cleavage of the SUMO tag by Ulp was confirmed by SDS-PAGE and the protein of interest was separated from the Ulp protease and SUMO tag by passing the cleavage reaction over a second NiNTA column. Flow-through and wash fractions containing protein of interest were combined and then loaded onto a Superdex 200 gel filtration column pre-equilibrated with the same lysis buffer.
The eluted purified proteins were analyzed by both SDS-PAGE and mass spectrometry, and the combined fractions were dialyzed three times in 5 L of Fluorescence Binding Buffer (100 mM NaCl, 50 mM Na2PO4 pH 7.4, 2 mM DTT). After filtering through a 0.22 μm GV Durapore Centrifugal Filter Unit (Millipore), FMRP concentration was determined by absorbance at 280 nm using a molar extinction coefficient of 48,360 M^−1 cm^−1, and the protein was used for binding studies with Kv1.2 C-terminal peptides.
All measurements were carried out in the Fluorescence Binding Buffer at 20 °C using a PTI Quanta Master 80 Spectrofluorometer (HORIBA Scientific) by monitoring intrinsic protein fluorescence with an excitation wavelength of 287 nm. Prior to performing a binding titration for any of the peptides, a full emission spectrum (300–450 nm) of the peptide:FMRP complex was compared to that of apo-FMRP. Differences in the spectrum of the complex (500–1000 μM peptide and 1 μM FMRP) and apo-FMRP at the same concentration (i.e., fluorescence quenching, enhancement or shifts of the emission maximum) indicated binding. For each of these peptides, binding measurements were performed by adding aliquots of saturated 1 µM FMRP:peptide complex (titration solution) to 400 μL of 1 μM apo-FMRP solution as described by Wells and Di Cera. Briefly, at each titration step, a volume vD was removed from the cuvette containing the apo-FMRP and replaced by an equal volume of the titration solution (1 μM FMRP: 200–500 μM peptide complex). As a result, the concentration of FMRP (1 μM) and total volume of solution in the cuvette, V = 400 μL, remained constant while the concentration of the peptide at the ith titration step, [peptide]i, was increased, and given by
[peptide]i = [peptide]0^i.D^i+[peptide]∞^i.(1 − D^i),
where, [peptide]0 was the initial peptide concentration in the cuvette, [peptide]∞ was the peptide concentration in the titration solution, and D was the dilution factor, D = (V − vD)/V. […]

[3] = test system: PNs, WT cerebellar slices; experiment: Spontaneous firing of PNs, cell-attached, WT; format: cell-based, mouse; details: 10 μM
[4] = test system: PNs, Fmr1-KO cerebellar slices; experiment: Spontaneous firing of PNs, cell-attached, Fmr1-KO; format: cell-based, mouse; details: 10 μM, Fmr1-KO

Molecule | inhibition of Kv1.2–FMRP binding (co-IP) [1] | amplitude and frequency of sIPSCs (BC–PN synapse, WT) | change of fluorescence emission spectrum of FMRP (binding) ([2]; listed as non-phosphorylated) | change of fluorescence emission spectrum of FMRP (binding) ([2]; listed as non-phosphorylated Kv1.2 C-terminal peptide) | spontaneous firing of PNs, WT [3] | spontaneous firing of PNs, KO [4]
PKIPSSPDLKKSRSASTISKSD [Kv436-457] | Neither the non-phosphorylated peptide with the identical sequence (Kv436-457, ^436PKIPSSPDLKKSRSASTISKSD^457) nor the doubly-phosphorylated scrambled peptide (IKPSTLSDSRAKpSSDPpSKPSIK) inhibited the Kv1.2–FMRP binding activity | but not the non-phosphorylated or scrambled phosphorylated peptide, significantly elevated the amplitude and frequency of sIPSCs | no change in the fluorescence emission spectrum of FMRP | no binding | – | –
NS(=O)(=O)c1cccc2c1c([N+](=O)[O-])cc1nc(O)c(O)nc12 [NBQX] | – | – | – | – | little effect on the spontaneous firing | little effect on the spontaneous firing
